Assays:
[1] = target: T1, influenza A virus (IAV) PA-Nter fragment (amino acids 1-209) (Influenza A virus, UniProt P31343); test: FRET endonuclease activity assay; assay type: biochemical; conditions: PA-Nter 0.5 μM, 1.6 μM RNA substrate
T1 construct: PA-Nter fragment (amino acids 1-209); made in house

[2] = system: influenza A virus A/Aichi/2/68 (H3N2) on MDCK cells; test: Cytopathic effect (CPE) assay; assay type: cell-based; conditions: for IC50: Influenza A virus, 48 hrs; for CPE (% CPE reduction): @ 50 μM
[3] = target: whole RNP complex of IAV strain A/PR/8/34 (Influenza A virus, UniProt P03433); test: Transcription assay (TA assay); assay type: biochemical; conditions: RNPs of A/PR/8/34, capped RNA substrate

| SMILES | IC50 [1] [nM] | IC50 ([2]; the 1st table) [nM] | IC50 [3] [nM] | IC50 ([2]; the 2nd table) [nM] | other results |
| --- | --- | --- | --- | --- | --- |
| CN1CCn2c(CNS(=O)(=O)c3ccc(Cl)cc3)cc(=O)c(O)c2C1=O | 130 | > 50000 |  |  |  |
| Cc1ccccc1S(=O)(=O)NCc1cc(=O)c(O)c2n1CCN(C)C2=O | 48 | > 50000 |  |  |  |
| CN1CCn2c(CNS(=O)(=O)c3cccc(Cl)c3)cc(=O)c(O)c2C1=O | 82 | > 50000 |  |  |  |
| CC(C)N1CCn2c(CNS(=O)(=O)c3ccc(Cl)cc3F)cc(=O)c(O)c2C1=O | 223 | > 50000 |  |  |  |
| CC(C)N1CCn2c(CNS(=O)(=O)c3ccc(Cl)cc3Cl)cc(=O)c(O)c2C1=O | 144 | > 50000 |  |  |  |
| CC(C)N1CCn2c(CNS(=O)(=O)c3cccc4ccccc34)cc(=O)c(O)c2C1=O | 124 | > 50000 |  |  |  |
| CC(C)N1CCn2c(CNS(=O)(=O)c3cn(C)cn3)cc(=O)c(O)c2C1=O | 260 | > 50000 |  |  |  |
| Cc1noc(C)c1S(=O)(=O)NCc1cc(=O)c(O)c2n1CCN(C(C)C)C2=O | 182 | > 50000 |  |  |  |
| CC(C)N1CCn2c(CNS(=O)(=O)C3CC3)cc(=O)c(O)c2C1=O | 181 | > 50000 |  |  |  |
| CC(C)CS(=O)(=O)NCc1cc(=O)c(O)c2n1CCN(C(C)C)C2=O | 211 | > 50000 |  |  |  |
| CC(C)N1CCn2c(CNS(=O)(=O)N(C)C)cc(=O)c(O)c2C1=O | 90 | > 50000 |  |  |  |
| CC(C)N1CCn2c(CN(C)S(=O)(=O)c3ccccc3)cc(=O)c(O)c2C1=O | 200 | > 50000 |  |  |  |
| CC(C)N1CCn2c(CN(Cc3ccccc3)C(=O)c3ccccc3)cc(=O)c(O)c2C1=O | 315 | > 50000 |  |  |  |
| CC(C)N1CCn2c(CN(Cc3ccccc3)Cc3ccccc3)cc(=O)c(O)c2C1=O | 1550 | > 50000 |  |  |  |
| CCCN(Cc1ccccc1)Cc1cc(=O)c(O)c2n1CCN(C(C)C)C2=O | 390 | > 50000 |  |  |  |
| CC(C)N1CCn2c(CNC(=O)c3ccc(Cl)cc3)cc(=O)c(O)c2C1=O | 245 | > 50000 |  |  |  |
| CC(=O)N(Cc1ccccc1)Cc1cc(=O)c(O)c2n1CCN(C(C)C)C2=O | 44 | > 50000 |  |  |  |
| CC(=O)N(Cc1cc(=O)c(O)c2n1CCN(C(C)C)C2=O)C1CCCCC1 | 48 | > 50000 |  |  |  |
| CC(C)N1CCn2c(CNC3CCCCC3)cc(=O)c(O)c2C1=O | 497 | > 50000 |  |  |  |
| CC(C)N1CCn2c(CN(C(=O)Cc3ccc(F)cc3F)C3CCCCC3)cc(=O)c(O)c2C1=O | 580 | > 50000 |  |  |  |
| CC(C)CC(=O)N(Cc1cc(=O)c(O)c2n1CCN(C(C)C)C2=O)C1CCCCC1 | 469 | > 50000 |  |  |  |
| CC(C)N1CCn2c(CN(C)C)cc(=O)c(O)c2C1=O | 92 | > 50000 |  |  |  |
| CC(C)N1CCn2c(CN)cc(=O)c(O)c2C1=O | 493 | > 50000 |  |  |  |
| CC(C)N1CCn2c(CNC3c4ccccc4CCc4ccccc43)cc(=O)c(O)c2C1=O | 3620 | > 50000 |  |  |  |

| SMILES | IC50 [1] [nM] | IC50 ([2]; the 1st table) [nM] | IC50 [3] [nM] | IC50 ([2]; the 2nd table) [nM] | other results |
| --- | --- | --- | --- | --- | --- |
| CC(C)N1CCn2c(CNC(c3ccccc3)c3ccccc3)cc(=O)c(O)c2C1=O | 1130 | > 50000 |  |  |  |
| Cc1cccc(C(=O)NCc2cc(=O)c(O)c3n2CCN(C(C)C)C3=O)c1 | 1070 | > 50000 |  |  |  |
| CC(C)N1CCn2c(CNC(=O)c3cccn3C)cc(=O)c(O)c2C1=O | 310 | > 50000 |  |  |  |
| CC(C)N1CCn2c(CN(Cc3ccccc3)C(=O)C3CC(F)(F)C3)cc(=O)c(O)c2C1=O |  |  | 2980 | > 50000 |  |
| CC(C)N1CCn2c(CN(Cc3cccc4ccccc34)C(=O)C3CC(F)(F)C3)cc(=O)c(O)c2C1=O |  |  | 253 | > 50000 |  |
| CC(C)N1CCn2c(CN(Cc3ccccc3-c3ccccc3)C(=O)C3CC(F)(F)C3)cc(=O)c(O)c2C1=O |  |  | 229 | > 50000 |  |
| CC(C)N1CCn2c(CNCc3ccccc3-c3ccccc3)cc(=O)c(O)c2C1=O |  |  | 535 | > 50000 |  |
| CC(C)N1CCn2c(CN(C)Cc3ccc(Cl)cc3)cc(=O)c(O)c2C1=O |  |  | 2110 | > 50000 |  |
| CC(C)N1CCn2c(CN(C)Cc3ccccc3)cc(=O)c(O)c2C1=O |  |  | 804 | > 50000 |  |
| CCN(Cc1ccccc1)Cc1cc(=O)c(O)c2n1CCN(C(C)C)C2=O |  |  | 1560 | > 50000 |  |
| CCN(Cc1ccc(Cl)cc1)Cc1cc(=O)c(O)c2n1CCN(C(C)C)C2=O.O=C(O)C(F)(F)F |  |  | 682 |  | CPE (% CPE reduction) [2]: 18% @ 50 μM |
| CC(C)N1CCn2c(CN(C)Cc3cccc(Cl)c3)cc(=O)c(O)c2C1=O.O=C(O)C(F)(F)F |  |  | 81 |  | CPE (% CPE reduction) [2]: 30.8% @ 50 μM |
| CCCN(Cc1cccc2ccccc12)Cc1cc(=O)c(O)c2n1CCN(C(C)C)C2=O |  |  | 1020 | > 50000 |  |
| CCCN(Cc1ccccc1-c1ccccc1)Cc1cc(=O)c(O)c2n1CCN(C(C)C)C2=O.O=C(O)C(F)(F)F |  |  |  | > 50000 | TA IC50 [3]: in- soluble |
| CCCN(Cc1cccc(-c2ccccc2)c1)Cc1cc(=O)c(O)c2n1CCN(C(C)C)C2=O |  |  | 690 | > 50000 |  |
| CCCN(Cc1ccc(-c2ccccc2)cc1)Cc1cc(=O)c(O)c2n1CCN(C(C)C)C2=O |  |  | 63800 | > 50000 |  |
| CC(C)N1CCn2c(CN(Cc3cccc(-c4ccccc4)c3)C3CC3)cc(=O)c(O)c2C1=O |  |  | 533 | > 50000 |  |
| CC(C)N1CCn2c(CN(Cc3ccc(-c4ccccc4)cc3)C3CC3)cc(=O)c(O)c2C1=O |  |  | 5310 | > 50000 |  |
| CC(C)N1CCn2c(CN(C)Cc3ccc(-c4ccccc4)cc3)cc(=O)c(O)c2C1=O |  |  | 11700 | > 50000 |  |
| CC(C)N1CCn2c(CN(Cc3cccc(Cl)c3)C3CC3)cc(=O)c(O)c2C1=O |  |  | 171 | > 50000 |  |
| CCN(Cc1cccc2ccccc12)Cc1cc(=O)c(O)c2n1CCN(C(C)C)C2=O |  |  | 220 | > 50000 |  |
| CCCN(Cc1cc(=O)c(O)c2n1CCN(C(C)C)C2=O)C1(c2ccccc2)CCCC1 |  |  | 870 | > 50000 |  |
| CCCN(Cc1cc(=O)c(O)c2n1CCN(C(C)C)C2=O)CC1(c2ccccc2)CCCC1 |  |  | 452 | > 50000 |  |

Reference: US20160002226A1, “PYRI[…] AND THEIR USE IN THE TREATMENT, AMELIORATION OR PREVENTION OF INFLUENZA” (F. Hoffmann-La Roche AG, priority 2014, published 2016)
